Consider one compound from paper PMC5688156, “The natural product carolacton inhibits folate-dependent C1 metabolism by targeting FolD/MTHFD” (Nature Communications, 2017).

One assay has as its target T1, ecFolD K54N (Escherichia coli, UniProt P24186, K54N).
T1 construct: His-tag (TEV-cleavable, vector pHis-TEV); made in house; host or cells: E. coli BL21 (DE3)
In words: ecFolD K54N mutant dehydrogenase (DH) enzyme assay. The assay is classed as biochemical, E. coli. As for the experimental part:
(§1) (6R,S)-5,10-Methylene-5,6,7,8-tetrahydrofolic acid ((6R,S)-5,10-CH2-THF) calcium salt and (6R,S)-5,10-Methenyl-5,6,7,8-tetrahydrofolic acid ((6R,S)-5,10-CH=THF) chloride were purchased from Schircks Laboratories (Bauma, Switzerland) and used as substrates for FolD dehydrogenase and cyclohydrolase enzyme assays, respectively. Only the R-isomer, which accounts for 50% of (6R,S)-5,10-CH2-THF and (6R,S)-5,10-CH=THF, respectively, is used by the enzyme. (6R,S)-5,10-CH2-THF was dissolved in N2-spargeled basic buffer (50 mM Tris-HCl (pH 8.0), 100 mM β-mercaptoethanol) as described by Varshney et al.[25]. (6R,S)-5,10-CH=THF was dissolved in DMSO as a 100 mM stock solution.
Because FolD is a bifunctional enzyme, dehydrogenase and cyclohydrolase activities were determined for FolD enzyme kinetics, respectively. The dehydrogenase activity of FolD was assayed for its substrate 5,10-CH2-THF and cofactor NADP^+ (in the case of MTHFD2, NAD^+ was used as the cofactor) based on monitoring the formation of 5,10-CH=THF, while the cyclohydrolase activity of FolD was determined for its substrate 5,10-CH=THF by monitoring the hydrolysis of […]. The enzyme kinetics for the dehydrogenase activity of all FolDs except hsMTHFD1_DC were determined at 30 °C in 50 mM Tris-HCl (pH 7.5), 30 mM β-mercaptoethanol. […]

The target in a further assay is T2, hsMTHFD2 (Homo sapiens, UniProt P13995).
T2 construct: His-tag (vector pHis-TEV) (cleaved yes); made in house; host or cells: E. coli BL21 (DE3)
T2 sequence (P13995 36-350): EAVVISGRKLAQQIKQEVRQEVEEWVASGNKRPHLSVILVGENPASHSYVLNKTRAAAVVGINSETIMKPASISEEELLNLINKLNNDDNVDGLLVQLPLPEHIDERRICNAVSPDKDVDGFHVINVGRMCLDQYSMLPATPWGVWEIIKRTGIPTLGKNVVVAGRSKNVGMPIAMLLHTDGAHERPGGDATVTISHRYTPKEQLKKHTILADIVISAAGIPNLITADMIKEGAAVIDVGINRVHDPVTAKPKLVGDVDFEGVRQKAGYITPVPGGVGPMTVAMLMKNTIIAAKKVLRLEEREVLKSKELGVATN
Kind of assay: hsMTHFD2 cyclohydrolase (CYH) enzyme assay. The assay is classed as biochemical. As to the method:
as §1
Because FolD is a bifunctional enzyme, dehydrogenase and cyclohydrolase activities were determined for FolD enzyme kinetics, respectively. The dehydrogenase activity of FolD was assayed for its substrate 5,10-CH2-THF and cofactor NADP^+ (in the case of MTHFD2, NAD^+ was used as the cofactor) based on monitoring the formation of 5,10-CH=THF, while the cyclohydrolase activity of FolD was determined for its substrate 5,10-CH=THF by monitoring the hydrolysis of […]. The enzyme kinetics for the dehydrogenase activity of all FolDs except hsMTHFD1_DC were determined at 30 °C in 50 mM Tris-HCl (pH 7.5), 30 mM β-mercaptoethanol. The hsMTHFD1_DC dehydrogenase activity was measured in 25 mM MOPS (pH 7.3), 30 mM β-mercaptoethanol at 30 °C. […] To monitor the formation of 5,10-CH=THF, the absorbance of the reaction mixture was monitored at 350 nm in micro UV cuvettes (BRAND, Essex, Connecticut, USA). The concentration of 5,10-CH=THF produced in the reaction was determined using an extinction co-efficient of 0.0249 μM^−1 cm^−1. […] The consumption of 5,10-CH=THF was measured by recording the absorbance of the reactions at 355 nm using the TECAN Infinite 200 PRO equipped with a monochromator. […] The inhibition constants (K i) of carolacton on FolD were determined by measuring the apparent K m when adding certain amounts of carolacton to the enzyme reactions. […]

A word on the IC50: it is the concentration that inhibits the measured activity by half. As usually defined, the IC80 is the concentration needed for an effect of 80%. As a reminder, the Ki is a measure of affinity in units of concentration, obtained from inhibition or displacement. Take `CO[C@H](CC(=O)O)[C@@H](C)C(=O)[C@H](C)/C=C(\C)[C@H]1OC(=O)[C@H](O)[C@H](O)/C=C/[C@H](C)CCC[C@@H]1C` [carolacton]: the “sensitivity of residual DH activity to carolacton” value at ecFolD K54N is “completely insensitive”. Besides, the 50% inhibitory concentration (IC50) at hsMTHFD2 (5 nM enzyme, read-out: IC50, carolacton inhibition on CYH activity) amounted to 85.7 nM. Further, the IC80 at hsMTHFD2 (5 nM enzyme, read-out: IC80, carolacton inhibition on CYH activity) is 202 nM. In addition, at hsMTHFD2 (vs 5,10-CH=THF, read-out: Ki (5,10-CH=THF), carolacton inhibition on CYH activity), the inhibition constant (Ki) came out at 12.7 nM.
